Test [1] concerns Mus musculus. In words: In vivo inhibition of compound required to inhibit TNF-alpha levels in zymosan treated mouse air pouch at a dose of 100 nmol/pouch. Type of test: functional.
Test [2] has as its target T1, Polyunsaturated fatty acid 5-lipoxygenase (Homo sapiens) (UniProt P09917).
T1 sequence (whole entry): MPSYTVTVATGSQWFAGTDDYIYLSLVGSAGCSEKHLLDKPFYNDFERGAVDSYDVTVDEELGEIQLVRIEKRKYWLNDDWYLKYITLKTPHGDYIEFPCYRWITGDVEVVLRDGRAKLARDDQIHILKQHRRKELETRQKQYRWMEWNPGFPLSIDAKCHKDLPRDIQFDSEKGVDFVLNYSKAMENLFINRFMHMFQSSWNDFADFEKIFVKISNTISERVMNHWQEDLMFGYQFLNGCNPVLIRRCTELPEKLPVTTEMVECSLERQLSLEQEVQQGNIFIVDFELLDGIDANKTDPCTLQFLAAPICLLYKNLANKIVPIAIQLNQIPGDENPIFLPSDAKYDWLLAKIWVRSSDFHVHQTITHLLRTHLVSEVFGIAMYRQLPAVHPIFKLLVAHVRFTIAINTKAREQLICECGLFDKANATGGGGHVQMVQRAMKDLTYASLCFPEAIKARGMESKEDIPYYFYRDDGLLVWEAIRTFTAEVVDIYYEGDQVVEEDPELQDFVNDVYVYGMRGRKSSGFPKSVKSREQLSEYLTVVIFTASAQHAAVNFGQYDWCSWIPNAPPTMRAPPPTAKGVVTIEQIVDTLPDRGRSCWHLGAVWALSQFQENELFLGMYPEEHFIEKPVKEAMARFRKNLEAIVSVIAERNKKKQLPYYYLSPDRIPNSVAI
The experiment in a line: (§1) Inhibitory concentration required against 5-lipoxygenase activity in cytosolic fractions of human neutrophils. To be noted: concentration not given here.

Test [3] has as its target T2, Prostaglandin G/H synthase 2 (Homo sapiens) (UniProt P35354).
T2 sequence (whole entry): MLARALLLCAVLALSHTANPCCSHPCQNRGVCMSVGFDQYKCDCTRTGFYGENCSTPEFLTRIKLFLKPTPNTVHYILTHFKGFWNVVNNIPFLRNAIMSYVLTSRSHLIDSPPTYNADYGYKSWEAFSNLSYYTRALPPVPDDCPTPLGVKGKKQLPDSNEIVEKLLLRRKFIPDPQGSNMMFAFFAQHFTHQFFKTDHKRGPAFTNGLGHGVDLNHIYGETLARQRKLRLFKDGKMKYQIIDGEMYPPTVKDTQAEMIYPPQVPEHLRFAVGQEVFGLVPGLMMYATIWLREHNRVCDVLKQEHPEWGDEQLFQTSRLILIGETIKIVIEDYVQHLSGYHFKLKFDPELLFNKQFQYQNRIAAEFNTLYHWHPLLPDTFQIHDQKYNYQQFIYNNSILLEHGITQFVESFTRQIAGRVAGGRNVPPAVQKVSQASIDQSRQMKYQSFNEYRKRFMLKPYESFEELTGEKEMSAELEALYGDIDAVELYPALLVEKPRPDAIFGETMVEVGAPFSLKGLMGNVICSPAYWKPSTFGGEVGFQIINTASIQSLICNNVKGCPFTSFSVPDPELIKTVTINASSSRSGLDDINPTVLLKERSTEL
The experiment in a line: Inhibition of COX-2 activity in intact human monocytes. Type of test: cell-based. Further details: concentration or dose not given beside the values. To be noted: concentration not given here.

In test [4] the test system is Mus musculus. In words: In vivo inhibition of compound required to inhibit PGE-2 levels in zymosan treated mouse air pouch at a dose of 100 nmol/pouch. Type of test: functional.
Test [5] has as its system Mus musculus. The experiment in a line: In vivo inhibition of compound required to inhibit LTB4 levels in zymosan treated mouse air pouch at a dose of 100 nmol/pouch. The class given is functional.
The species entered for test [6] is Homo sapiens. In words: (§2) Inhibitory concentration required for LTB4 synthesis in stimulated human neutrophils. The class given is functional.
Test [7] concerns Mus musculus. The experiment in a line: In vivo inhibition of compound required for migration of neutrophils into the mouse pouch at the dose of 100 nmol/pouch. The class given is functional.
Test [8] is filed under the species Homo sapiens. The experiment in a line: (§3) […] required for elastase release in stimulated human neutrophils. Type of test: functional. Set-up: concentration or dose not given beside the values.
The species named for test [9] is Homo sapiens. Described as §3. The class given is functional.
For test [10], the species on record is Homo sapiens. Described as §2. The class given is functional, organism-based.
Test [11] deals with T3, Polyunsaturated fatty acid 5-lipoxygenase (Homo sapiens, UniProt P09917).
T3 sequence (P09917 whole entry): T1 sequence (whole entry)
The description is as §1.

The nature of test [12]: Inhibitory concentration required for scavenging of superoxide anion generated by hypoxanthine / xanthine oxidase system. Type of test: functional.
For test [13], the species on record is Homo sapiens. In words: Inhibitory concentration required for scavenging of superoxide anion generated by stimulated human neutrophils. Type of test: functional.
Test [14] deals with T3, Polyunsaturated fatty acid 5-lipoxygenase. The experiment in a line: Inhibitory concentration required against 5-lipoxygenase activity in intact cells of human neutrophils. The class given is cell-based.

In general, Inhibition refers to the percentage by which the read-out fell short of the control. One may read the inhibition as how much of the control response was suppressed. What is called IC50 is the concentration that gives 50% inhibition.

For the molecule `COc1cc(/C=C/C(=O)c2cc(OC)c(OC)c(OC)c2)cc(OC)c1OC`, the Inhibition in test [1] was found to be 25.7%; in test [4] it was 0%; in test [5], 27.5%; in test [6], 21.1%; in test [7], 35%; in test [8] it was 0%. The inhibition was 14.6% in test [2] and 0% in test [3].
On to `COc1cc2cc(/C=C/C(=O)c3ccccc3)c(Cl)nc2cc1OC`, for which the Inhibition is given as 35.7% in [1]; 29.9% in [4]; 0% in test [5]; 42.2% in test [6]; 0% in test [7]; 0% in test [8]. Moreover, the inhibition in test [2] stood at 42%; in [3], 0%.
For the molecule `O=C(/C=C/c1cc2ccccc2nc1Cl)c1ccc(F)cc1`, the Inhibition stood at 0% in [1], 58.3% in [4], 18.5% in [5] and 36.6% in [7]. Moreover, the IC50 came to 3 µM in [9], 6.2 µM in test [10] and 3.9 µM in [11]. Also, in test [3], the inhibition was found to be 36.3%.
For `O=C(/C=C/c1ccco1)c1ccc(Cl)c(Cl)c1`, the Inhibition in test [1] is given as 0%; in test [4] it was 71%; in test [5] it was 0%; in test [7], 47.3%. Moreover, the results for the IC50 in test [9], in test [10] and in test [11] were 5.4 µM, 4.8 µM and 4.1 µM, respectively. This molecule also displayed an inhibition in test [3] of 0%.
As to `COc1cccc(/C=C/C(=O)c2ccc(Br)cc2)c1OC`, the Inhibition in test [1] was determined as 44%; in test [4], 62%; in [5], 40%; in test [7], 35.7%. Further, the half-inhibitory concentration (IC50) in [9] turned out to be 2.2 µM; in test [10], 6.7 µM; in test [11] it was 6.1 µM. Moreover, in test [3], the inhibition was 0%.
As to `Cc1coc(C)c1C(=O)/C=C/c1cc2ccccc2nc1Cl`, the Inhibition in [1] is given as 34.4%; in test [4], 56.8%; in test [5] it was 19.5%; in test [6], 53.5%; in [7], 47.1%. Besides, the IC50 turned out to be 8.4 µM in [9] and 3.5 µM in test [11]. The molecule also displayed an inhibition in test [3] of 0%.
On to `COc1cc2cc(/C=C/C(=O)c3ccc(C)cc3)c(Cl)nc2cc1OC`, for which the Inhibition in test [1] is 11.2%; in test [4], 59.5%; in test [5], 15.2%; in test [7] it was 38.6%; in test [8], 40.7%. For the same molecule, the inhibition in [2] amounted to 61%; in test [3], 0%. In test [10], this molecule registered an IC50 of 9.8 µM.
As to `COc1ccc(C(=O)/C=C/c2ccc(N(C)C)cc2)cc1OC`, the Inhibition was 64.2% in test [1]; 75.8% in test [4]; 41.1% in test [5]; 0% in test [6]; 20.6% in [7]; 0% in test [8]. Moreover, the half-maximal inhibitory concentration (IC50) was 0.3 µM in test [12] and 0.1 µM in [13]. Also, the inhibition in test [2] came to 37.9%; in test [3] it was 0%.
For the molecule `O=C(/C=C/c1cc2ccccc2nc1Cl)c1cccnc1`, the Inhibition is listed as 12.1% in test [1]; 69.5% in test [4]; 30.7% in test [5]; 26.4% in test [6]; 53% in [7]; 0% in test [8]. The values for the inhibition in test [2] and in test [3] were 30.2% and 46.6%, respectively.
Turning to `COc1ccc(C(=O)/C=C/c2cc3ccccc3nc2Cl)c(OC)c1`, the Inhibition in test [1] is listed as 52.1%; in test [4], 36.2%; in [5] it was 11.1%; in [6], 10.7%; in [7] it was 0%; in [8], 0%. The inhibition was found to be 27.6% in [2] and 41.8% in test [3].
On to `O=C(/C=C/c1cc2ccccc2nc1Cl)c1ccc(C(F)(F)F)cc1`, for which the Inhibition is given as 24.5% in test [1]; 46.5% in test [4]; 13% in test [5]; 36.9% in [6]; 39.7% in test [7]; 0% in test [8]. Moreover, the inhibition in test [2] was 32.9%; in test [3] it was 35.6%.
As for `CCn1c(=O)ccc2cc(COc3cc(F)cc(C4(OC)CCOCC4)c3)ccc21`, the IC50 in test [14] is 0.06 µM; in [11] it was 0.09 µM.
As to `COc1ccc(C(=O)/C=C/c2ccc(C(F)(F)F)cc2)c(OC)c1`, the Inhibition in test [1] came to 0%; in [4], 25.5%; in test [5], 45.9%; in test [6], 35.4%; in test [7], 0%; in [8], 0%. Moreover, the inhibition in test [2] came to 21.7%; in test [3] it was 0%.
For `COc1ccc(C(=O)/C=C/c2cc3ccccc3nc2Cl)cc1`, the Inhibition in [1] worked out at 0%; in test [4] it was 23.2%; in test [5], 20.9%; in test [6], 30.2%; in [7], 20.4%; in test [8] it was 0%. For the same molecule, the inhibition came to 42.3% in [2] and 30% in test [3].

Source of the values: ChEMBL document CHEMBL1131525, “Synthesis and anti-inflammatory activity of chalcone derivatives” (Bioorg Med Chem Lett, 1998).
